Data from paper PMC11077991, “The small molecule CBR-5884 inhibits the Candida albicans phosphatidylserine synthase” (mBio, 2024).
In brackets after ≈: the same amount, converted by molar mass. Where two headings read alike, the source gives them in different places.

Columns and labels:
[1] = test system: wild-type C. albicans strain SC5314; experiment: CLSI MIC broth microdilution; type: cell-based, Candida albicans; conditions: Candida albicans
Protocol: We then tested the effects of the six compounds on live cells by determining the minimal inhibitory concentrations (MICs) of these compounds. Following the standard Clinical & Lab Standards Institute (CLSI) MIC broth microdilution methods, wild-type C. albicans strain SC5314 was grown with avasimibe, CBR-5884, tideglusib, ebselen, ML-345, and LOC14 in RPMI MOPS medium (pH 7.0) or alternatively in minimal medium or minimal medium with HEPES (pH 7.0) at 37°C for 48 h, along with a cho1ΔΔ strain as a control (Fig. 3A through C). The concentration of the compounds was varied from 0.5 to 250 µM. […] Ebselen, LOC14, and CBR-5884, on the contrary, stopped cell growth at different concentrations in all three media, with MICs ranging between 7.8 and 31.3 μM (Fig. 3A through D). […] Specific MIC values are summarized in Fig. 3D for all the compounds.
Minimum inhibitory concentration (MIC) was determined following Clinical & Lab Standards Institute (CLSI) MIC broth microdilution protocol (Licensed to Todd Reynolds, license # Ord-1138682) ([98], [99]). Briefly, stock solutions of different compounds (purchased from MedChemExpress) were prepared at a concentration of 10 mM in DMSO and subsequently diluted as required in the same solvent. Wild-type C. albicans strain SC5314, as well as four additional wild-type strains—GDH2346, 3153A, TFPY412, and TFPY2307, were cultured overnight in YPD medium at 30°C, washed with water three times, and then diluted to a concentration of 2 × 10^3 cells/mL (OD600 = 0.00008) in one of the three media [minimal medium, minimal medium buffered with 50 mM HEPES (pH 7.0) and RPMI MOPS (pH 7.0)]. The cho1ΔΔ strain was also included as a control. A volume of 100 µL from each cell suspension was dispensed into the wells of a flat-bottom 96-well plate. An additional 100 µL of corresponding medium, containing twice the final desired concentration of each drug, was added to each well, leading to a final initial inoculum of 1 × 10^3 cells/mL (OD600 = 0.00004). The final DMSO concentration was maintained at 2.5% across all treatments. Following preparation, the plates were incubated at 37°C for 48 h and photos were taken with a Bio-Rad Gel Doc XR + Imaging System.

[2] = test system: crude membrane containing Cho1; experiment: radioactive PS synthase assay on crude membrane containing Cho1; type: biochemical, Candida albicans; conditions: compounds at 1 mM
Protocol: Enzymatic activity of Cho1 in the presence of the compounds was measured using the radioactive PS synthase assay. For purified Cho1, the procedure was fully described in reference ([33]). Briefly, 1–2 μg of purified Cho1 was added to the reaction containing 50 mM Tris-HCl (pH 8.0), 1 mM MnCl2, 0.1% Triton X-100, 0.04% digitonin, 0.1 mM (4.7 mol %), 16:0 CDP-DAG (Avanti, cat# 870510), and 0.5 mM L-serine [spiked with 5% (by volume) L-[^3H]-serine (15 Ci/mmol)] at a total volume of 100 µL, in the presence of 100 µM of each compound or equivalent DMSO solvent. The reaction was conducted at 30°C for 30 min, and [^3H]PS produced in the reaction was measured using a liquid scintillation counter. For crude membrane samples, crude membrane preps from wildtype and cho1ΔΔ strains were collected and assayed as described in reference ([33]) with the exception that 2 mM L-serine [spiked with 5% (by volume) L-[^3H]-serine (15 Ci/mmol)] was used in each reaction. A final concentration of 1 mM of each compound was used for the crude membrane samples.

[3] = SC5314, 48 h, pH 7, read-out: Minimal Inhibitory Concentration (MIC): MM, HEPES 7.0
[4] = SC5314, 48 h, pH 7, read-out: Minimal Inhibitory Concentration (MIC): RPMI, MOPS 7.0
[5] = SC5314, 48 h, read-out: MICs across all three media
[6] = SC5314, 48 h, read-out: Minimal Inhibitory Concentration (MIC): MM

With O=C(C1CC1)N1CCN(Cn2sc3ccccc3c2=O)CC1 [LOC14] the MIC [1, 3] was 15.6 µM (≈ 4.95 µg/mL), the MIC [1, 4] was 31.3 µM (≈ 9.94 µg/mL) and the MIC [1, 5] was 7.8 to 31.3 µM (≈ 2.48 to 9.94 µg/mL). The MIC [1, 6] was 15.6 µM (≈ 4.95 µg/mL) and the “PS production in native crude membranes” value [2] was “decreased PS production”.

With CCOC(=O)c1sc(NC(=O)c2ccco2)c(SC#N)c1C [CBR-5884] the MIC [1, 3] was 31.3 µM (≈ 10.5 µg/mL), the MIC [1, 4] was 31.3 µM (≈ 10.5 µg/mL) and the MIC [1, 5] was 7.8 to 31.3 µM (≈ 2.62 to 10.5 µg/mL). For the same molecule, the MIC [1, 6] was 7.8 µM (≈ 2.62 µg/mL) and the “PS production in native crude membranes” value [2] was “decreased PS production”.

Work on O=c1c2ccccc2[se]n1-c1ccccc1 [Ebselen] yielded an MIC ([1]; SC5314, RPMI MOPS pH 7.0, 37°C, 48 h, read-out: Minimal Inhibitory Concentration (MIC): RPMI, MOPS 7.0) of 7.8 µM (≈ 2.14 µg/mL), an MIC ([1]; SC5314, minimal medium with 50 mM HEPES pH 7.0, 37°C, 48 h, read-out: Minimal Inhibitory Concentration (MIC): MM, HEPES 7.0) of 15.6 µM (≈ 4.28 µg/mL) and an MIC ([1]; SC5314, minimal medium, 37°C, 48 h, read-out: Minimal Inhibitory Concentration (MIC): MM) of 7.8 µM (≈ 2.14 µg/mL). For the same molecule, the MIC ([1]; SC5314, minimal medium, minimal medium HEPES, RPMI MOPS, 37°C, 48 h, read-out: MICs across all three media) was 7.8 to 31.3 µM (≈ 2.14 to 8.58 µg/mL) and the “PS production in native crude membranes” value [2] was “decreased PS production”.
